{
  "source": "patent US6673746B1",
  "about": "“Virulence enhancement of bioherbicides” (priority 1999, dated 2004)",
  "key": {"Fusarium oxysporum": {"system": "Fusarium oxysporum", "format": "cell-based", "conditions": "0.5 ml of 1000 :g/ml analog in well, minimal medium, 28° C.", "method": "Mutant selection. The inhibitory effect of valine and valine analogs was tested against the selected Fusarium spp., using a well zone-diffusion assay on a minimal medium. Seven available valine analogs were tested. The gradient plates were prepared as follows: Minimal media was poured into Petri dishes, then a disk (diameter=10 mm) of the solidified medium was cut out (with number 5 cutter) from the center of the plate and filled with the sterile solution of an analog (0.5 ml of a 1000 :g/ml of analog in sterile distilled H2O). The solution was gradually applied to the well and the plates were allowed to dry and form a gradient under the hood for 24 hours. A Fusarium oxysporum microconidia suspension of 10^7 sp/ml was obtained by washing a 10-14 day fungal culture grown on minimal medium (with nitrate) with 10 ml of sterile H2O. Five hundred :1 of the spore suspension was thoroughly spread across the plate with a glass rod. These plates were then incubated at 28° C."}, "Nicotiana tobaccum": {"system": "Nicotiana tobaccum", "assay": "Amino acid toxicity test on plants, tobacco seedlings", "format": "in vivo", "conditions": "0.1 mM on agar media", "method": "(§1) Amino Acid Toxicity Tests on Plants. Germinated seeds of Cannabis sativa, Papaver somniferum, and Nicotiana tobaccum were transferred to minimal medium (3% Sucrose (w/v), 1.7 g/l Yeast extract base without amino acids (Difco Laboratories, Detroit, Mich.), 16 g/l Ultrapure Agar (USB, Cleveland, Ohio)) supplemented with increasing concentrations of amino acids. Each amino acid was supplemented at eight concentrations (0 mM, 0.01 mM, 0.1 mM, 0.5 mM, 1 mM, 2 mM, 3 mM, 4 mM), and each treatment was replicated six times. Five pregerminated seeds were placed on each plate, per replication. Plates were incubated at ambient temperature with 12-hour diurnal period for two weeks. The fresh weight per seedling was calculated at the end of the experiment."}, "Cannabis sativa": {"system": "Cannabis sativa", "format": "in vivo", "method": "as §1"}, "Papaver somniferum": {"system": "Papaver somniferum", "assay": "Amino acid toxicity test on plants, Papaver somniferum seedlings", "format": "in vivo", "conditions": "for reduction of fresh weight of P. somniferum seedlings: 1 mM; for inhibition of P. somniferum seedling growth compared with the other amino acids: in vivo; for reduction of fresh weight of P. somniferum seedlings vs control: 0.1 mM", "method": "as §1"}},
  "data": [
    {"smiles": "CCC[C@H](N)C(=O)O", "note": "[Norvaline]", "values": [
      {"measurement": "inhibitory effect on strains of F. oxysporum", "setting": "Fusarium oxysporum", "value": "inhibitory"}
    ]},
    {"smiles": "CC(C)[C@H](N)CO", "note": "[L-valinol]", "values": [
      {"measurement": "inhibitory effect on strains of F. oxysporum", "setting": "Fusarium oxysporum", "value": "not inhibitory"}
    ]},
    {"smiles": "N[C@@H](Cc1ccccc1)C(=O)O", "note": "[phenylalanine]", "values": [
      {"measurement": "reduction of fresh weight of tobacco seedlings vs control", "setting": "Nicotiana tobaccum", "value": 20, "unit": "%"},
      {"measurement": "reduction of fresh weight of C. sativa seedlings vs control", "setting": "Cannabis sativa; 0.1 mM in minimal medium", "value": "40-45%"},
      {"measurement": "reduction of fresh weight of P. somniferum seedlings", "setting": "Papaver somniferum", "value": 20, "unit": "%"},
      {"measurement": "inhibition of P. somniferum seedling growth compared with the other amino acids", "setting": "Papaver somniferum", "value": "less inhibitory"}
    ]},
    {"smiles": "CC[C@H](N)C(=O)O", "note": "[L-amino-n- butyric acid]", "values": [
      {"measurement": "inhibitory effect on strains of F. oxysporum", "setting": "Fusarium oxysporum", "value": "not inhibitory"}
    ]},
    {"smiles": "CCC(C)C(=O)C(=O)O", "note": "(racemic) [DL-α-keto-β-methyl valeric acid]", "values": [
      {"measurement": "inhibitory effect on strains of F. oxysporum", "setting": "Fusarium oxysporum", "value": "not inhibitory"}
    ]},
    {"smiles": "CC(C)(S)[C@@H](N)C(=O)O", "note": "[penicillamine]", "values": [
      {"measurement": "inhibitory effect on strains of F. oxysporum", "setting": "Fusarium oxysporum", "value": "inhibitory"}
    ]},
    {"smiles": "N[C@@H](Cc1ccc(O)cc1)C(=O)O", "note": "[tyrosine]", "values": [
      {"measurement": "reduction of fresh weight of tobacco seedlings vs control", "setting": "Nicotiana tobaccum", "value": "50-60%"},
      {"measurement": "reduction of fresh weight of C. sativa seedlings", "setting": "Cannabis sativa; 1 mM in minimal medium", "value": "25-30%"},
      {"measurement": "inhibition of C. sativa seedlings compared with the other amino acids", "setting": "Cannabis sativa; in vivo", "value": "less inhibitory than other amino acids tested"},
      {"measurement": "reduction of fresh weight of P. somniferum seedlings vs control", "setting": "Papaver somniferum", "value": "about 40%"}
    ]},
    {"smiles": "CC(C)[C@H](N)C(=O)NO", "note": "[L-valine hydroxamate]", "values": [
      {"measurement": "inhibitory effect on strains of F. oxysporum", "setting": "Fusarium oxysporum", "value": "not inhibitory"}
    ]},
    {"smiles": "CC(C)[C@H](N)C(=O)O", "note": "[valine]", "values": [
      {"measurement": "reduction of fresh weight of C. sativa seedlings vs control", "setting": "Cannabis sativa; 0.1 mM in minimal medium", "value": 50, "unit": "%"},
      {"measurement": "fresh weight of C. sativa seedlings relative to control seedlings", "setting": "Cannabis sativa; 0.1 mM in minimal medium, two weeks", "value": "half of the control"},
      {"measurement": "concentration at which inhibitory effects on growth of C. sativa seedlings start", "setting": "Cannabis sativa; minimal media with nitrate", "value": 0.1, "unit": "mM"},
      {"measurement": "reduction of fresh weight of P. somniferum seedlings vs control", "setting": "Papaver somniferum", "value": "about 60%"}
    ]},
    {"smiles": "CC(C)[C@H](N)C(N)=O", "note": "[L-valine amide]", "values": [
      {"measurement": "inhibitory effect on strains of F. oxysporum", "setting": "Fusarium oxysporum", "value": "not inhibitory"}
    ]},
    {"smiles": "N[C@@H](Cc1c[nH]c2ccccc12)C(=O)O", "note": "[tryptophan]", "values": [
      {"measurement": "reduction of fresh weight of tobacco seedlings vs control", "setting": "Nicotiana tobaccum", "value": 20, "unit": "%"},
      {"measurement": "reduction of fresh weight of P. somniferum seedlings", "setting": "Papaver somniferum", "value": 20, "unit": "%"},
      {"measurement": "inhibition of P. somniferum seedling growth compared with the other amino acids", "setting": "Papaver somniferum", "value": "less inhibitory"}
    ]}
  ]
}
